Experimental data reported in the supplement of paper PMC4858399.
Counter-ions that a name gives are not always drawn.

Key:
[1] = system: Caenorhabditis elegans N2; experiment: lowest effective concentration for larval growth inhibition (size below effect threshold); higher = less potent; details: exposure time 48 h
In short: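 Each well of a 96-well plate received 50 C. elegans N2 L1 larvae, which grew for 48 h at 20°C in K-medium containing killed bacteria, 1% DMSO and the chemical at 0.5, 1, 5, 10, 50, 100 or 200 µM. A Biosort recorded the extinction of every worm as its size, and these readings were log-transformed and averaged per well. The lowest effective concentration is defined as the first dose at which the plate-adjusted mean size falls below the threshold and stays below it at all higher doses; that threshold is 5.665.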

[2] = system: Caenorhabditis elegans N2; experiment: mean nematode size ln(EXT) after 48 h, plate-adjusted (DMSO control set to 6) (ln(EXT), control-adjusted); higher = larger nematodes / less growth inhibition; details: exposure time 48 h
In short: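 C. elegans N2 larvae, synchronised at L1, grew for 48 h at 20°C in K-medium with killed OP50, 1% DMSO and 0.5–200 µM chemical. Mean size per well was derived from natural-logged Biosort extinction after a growth model removed debris. Adjustment across plates involved subtracting the vehicle control mean and adding 6.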

Structure (SMILES) | lowest effective concentration [1] [µM] | mean nematode size ln(EXT) (ln) ([2]; 0.5 µM) | mean nematode size ln(EXT) (ln) ([2]; 1 µM) | mean nematode size ln(EXT) (ln) ([2]; 5 µM) | mean nematode size ln(EXT) (ln) ([2]; 10 µM) | mean nematode size ln(EXT) (ln) ([2]; 50 µM) | mean nematode size ln(EXT) (ln) ([2]; 100 µM) | mean nematode size ln(EXT) (ln) ([2]; 200 µM)
Cc1nc(-c2ccccn2)ncc1C(=O)Nn1cc(C)c2cc(F)ccc21 | > 200 | 5.82 | 5.84 | 5.9 | 5.83 | 5.73 | 5.77 | 5.86
O=C(OCCCCCCOC(=O)c1ccccc1)c1ccccc1 [1,6-Hexanediol dibenzoate] | 50 | 5.83 | 5.82 | 5.69 | 5.68 | 5.63 | 5.49 | 5.57
C[N+](C)(C)CC1CO1 (stereo not drawn) [Oxiranemethanaminium, N,N,N-trimethyl-, chloride] | 200 | 5.78 | 5.84 | 5.81 | 5.54 | 5.83 | 5.84 | 5.66
Cc1ccc(N(C)C)cc1 [N,N,4-Trimethylaniline] | > 200 | 5.82 | 5.87 | 5.94 | 5.79 | 5.76 | 5.72 | 5.73
Cc1ccc(C(C)C)cc1 [p-Cymene] | > 200 | 5.73 | 5.99 | 6.14 | 6.05 | 6.08 | 6.06 | 5.92
CCNc1nc(Cl)nc(NC(C)C)n1 [Atrazine] | > 200 | 5.54 | 5.72 | 5.73 | 5.07 | 6.06 | 6.06 | 5.94
CCCCCCCCOC(=O)c1ccccc1C(=O)OCCCCCCCC [Di-n-octyl phthalate] | > 200 | 5.93 | 5.87 | 5.9 | 5.85 | 5.88 | 5.83 | 5.83
NC(N)=O [Urea] | > 200 | 5.83 | 5.73 | 5.79 | 5.7 | 5.77 | 5.86 | 5.74
NNC(=O)c1ccncc1 [Isoniazid] | 200 | 5.78 | 5.82 | 5.77 | 5.64 | 5.82 | 5.88 | 5.65
CN(C)C(=O)NC1(c2ccccc2)CCN(CC[C@@]2(c3ccc(F)c(F)c3)CN(C(=O)c3ccccc3)CCO2)CC1 | > 200 | 5.89 | 5.86 | 5.86 | 5.8 | 5.9 | 5.92 | 5.68
ClCCOCCCl [Bis(2-chloroethyl)ether] | > 200 | 5.78 | 6.14 | 5.94 | 5.96 | 5.8 | 5.86 | 5.72
CCCCCCOCCO [Ethylene glycol monohexyl ether] | > 200 | 5.81 | 6.03 | 5.9 | 5.93 | 5.72 | 5.89 | 5.77
CC(C)c1ccc(C(=O)N=C(N)N)cc1S(C)(=O)=O [Cariporide mesylate (HOE642)] | > 200 | 5.88 | 5.82 | 5.8 | 5.77 | 5.7 | 5.62 | 5.71
CCn1nc(Cc2ccccc2)cc1C1CCN(C[C@H]2C[C@H](N(C)[C@@H](C(=O)O)C(C)C)C[C@@H]2c2cccc(F)c2)CC1 | > 200 | 5.93 | 5.9 | 5.91 | 5.93 | 5.92 | 5.83 | 5.73
Nc1cnn(-c2ccccc2)c(=O)c1Cl [Chloridazon] | > 200 | 5.51 | 5.47 | 5.3 | 6.01 | 5.44 | 5.44 | 5.89
Nc1ccc(C(=O)O)cc1 [4-Aminobenzoic acid] | > 200 | 5.84 | 5.87 | 5.81 | 5.49 | 5.83 | 5.85 | 5.72
CC(C)NCC(O)c1ccc(O)c(O)c1 (stereo not drawn) [Isoprenaline hydrochloride] | > 200 | 5.94 | 5.97 | 5.91 | 5.94 | 5.95 | 5.54 | 5.84
O=C1OC(=O)C2C3C=CC(C3)C12 (stereo not drawn) [4,7-Methanoisobenzofuran-1,3-dione, 3A,4,7,7A-tetrahydro-] | > 200 | 5.86 | 5.82 | 5.84 | 5.82 | 5.8 | 5.52 | 5.71
Cc1ccc(C(C)C)c(O)c1 [Thymol] | > 200 | 5.92 | 5.82 | 5.66 | 5.65 | 5.67 | 5.51 | 5.72
CC(=O)c1ccccc1 [Acetophenone] | > 200 | 6 | 6.01 | 6.03 | 6.08 | 6.16 | 6.11 | 5.78
Oc1ccc(Cl)cc1Cl [2,4-Dichlorophenol] | > 200 | 6.05 | 6.13 | 6.07 | 6.04 | 6.03 | 6.03 | 6.92
CSC(C)(C)/C=N/O [Aldicarb oxime] | > 200 | 5.88 | 5.88 | 5.75 | 5.85 | 5.94 | 5.94 | 5.77
O=C(O)c1nc(Cl)ccc1Cl [Clopyralid] | > 200 | 5.75 | 5.75 | 5.75 | 5.87 | 5.93 | 5.89 | 6.08
CCOc1nc(F)cc2nc(S(=O)(=O)Nc3c(Cl)cccc3Cl)nn12 [Diclosulam] | > 200 | 6.11 | 6.13 | 6.09 | 6.14 | 6.15 | 6.17 | 5.79
C=CCc1ccc(O)c(OC)c1 [Eugenol] | > 200 | 5.89 | 5.9 | 5.93 | 5.98 | 5.91 | 5.87 | 5.77
Cc1cc(Cc2ccc(N)c(C)c2)ccc1N [4,4'-Methylene bis(2-methylaniline)] | > 200 | 5.83 | 5.82 | 5.8 | 5.78 | 5.79 | 5.83 | 5.71
